Columns and labels:
AncD1 [1] = test system: AncD1; parameters: steady-state kinetics with 20 uM F420, absorbance decrease at 400 nm, pH 7.5, 25 °C; conditions: 20 uM F420, pH 7.5, 25 °C; substrate
Method: Sugars (phosphorylated as well as non-phosphorylated) and alcohols were tested as substrates. D-glucose-6-phosphate (G6P) was used as a prototype substrate to initially verify activity. Other 6-phosphorylated sugars tested were: D-fructose-6-phosphate, D-mannose-6-phosphate and D-glucosamine-6-phosphate. D-glucose, D-fructose, D-mannose, D-xylose, D-galactose-1-phosphate, D-glucose-1-phosphate, isopropanol, isobutanol, butanol and cyclohexanol were also tested for activity. Kinetics of all enzymes was measured in a Synergy MX microplate reader (BioTek) using 96-well F-bottom plates (Greiner Bio-One GmbH) at 25 °C. Assays were performed in a volume of 200 µL, containing 20 µM F420, 50–100 nM of enzyme and varying concentrations of the substrates in buffer (50 mM KPi, pH 7.5). Reaction was started by adding 100 µL of enzyme. All measurements were followed at λ = 400 nm for 3 min. The observed rates (kobs) were calculated by using a molecular extinction coefficient of ε400 (F420) = 25.7 mM^−1cm^−1. All experiments were repeated three times.

FGD-Noca (FSD-Noca) = target: T1, FGD-Noca (FSD-Noca) (Nocardioidaceae bacterium Broad-1, UniProt E9V3D1); experiment: fluorescence quenching of FMN (ex […] nm, em […] nm), one-site fit; type: binding; conditions: read-out: FGD-Noca (FSD-Noca) / kcat [s^-1]
T1 construct: full-length, codon-optimised, expressed in E. coli TOP10 (pBAD) as native protein, no SUMO; purified by anion exchange

AncD1 [2] = experiment: as above; type: binding; conditions: 0.1 µM cofactor, 25 °C; apparent KD; read-out: FGD-Noca (FSD-Noca) / kcat [s^-1]
FGD-Cryar (FSD-Cryar) = target: T2, FGD-Cryar (FSD-Cryar) (Cryptosporangium arvum, UniProt A0A010YY07); experiment: as above; type: binding; conditions: read-out: FGD-Noca (FSD-Noca) / kcat [s^-1]
T2 construct: gene CryarDRAFT_1153

Km (AncD1 [1])	Structure (SMILES)	Kd (FGD-Noca (FSD-Noca))	Kd (AncD1 [2])	Kd (FGD-Cryar (FSD-Cryar))
1 ± 0.19 mM	O=P(O)(O)OC[C@H]1OC(O)[C@H](O)[C@@H](O)[C@@H]1O (stereo partly drawn) [D-glucose-6-phosphate]	–	–	–
45 ± 15 mM	O=P(O)(O)OC[C@H]1OC(O)(CO)[C@@H](O)[C@@H]1O (stereo partly drawn) [D-fructose-6-phosphate]	–	–	–
7.2 ± 4.7 mM	O=P(O)(O)OC[C@H]1OC(O)[C@@H](O)[C@@H](O)[C@@H]1O (stereo partly drawn) [D-mannose-6-phosphate]	–	–	–
–	Cc1cc2nc3c(=O)[nH]c(=O)nc-3n(C[C@H](O)[C@H](O)[C@H](O)COP(=O)(O)O)c2cc1C [FMN]	> 150 µM	> 150 µM	> 150 µM

— paper PMC6279831, “Reconstructing the evolutionary history of F420-dependent dehydrogenases” (Scientific Reports, 2018)
